Measurements as given in US20240207244A1, “COMPOSITIONS AND METHODS FOR TREATING NEURODEGENERATIVE DISORDERS THROUGH INHIBITION OF CD44 AND FERM PROTEIN INTERACTION” (Arizona Board of Regents on Behalf of the University of …, priority 2021, published 2024).

Assays:
HMC3 cells = test: Flow cytometry of HLA-DR expression in IFNγ-stimulated HMC3 microglial cells; type: cell-based, Human; conditions: HMC3 cells pre-incubated 24 h, then stimulated with IFNγ
From the text: Once we define the binding using purified protein, we validate the binding in cells. We have done this through imaging by using the Lumio™ system for site-specific fluorescent labeling of recombinant proteins in living cells, flow cytometry assays, and cellular thermal shift assay (CETSA). • Lumio™ System Imaging: This recently developed method relies on FLASH (Fluorescein Arsenical Hairpin) technology, which uses biarsenical labeling reagents to bind and detect proteins containing a tetracysteine (TC) motif (Griffin et al., 1998). The biarsenical labeling reagents are nonfluorescent until they bind the TC motif at which time, they become highly fluorescent. Both, a genetically engineered CD44 containing a TC motif, and mCherry-Moesin, were co-transfected into Immortalized Human Microglia (SV40 cell line) (FIG. 5). Ongoing work is being done to optimize this protocol and adapt it for use with small compounds. • Flow Cytometry: Current studies of microglial activation are widely performed to study neuroinflammation and test small compounds and their anti-inflammatory properties. IFNγ was be used to activate macrophage response in HMC3 cells (Human microglial cell line, PMID: 30200996), while flow cytometry was employed in combination with small compounds. […] Reactive microglia expressing the histocompatibility glycoprotein HLA-DR were detected using flow cytometry. […]

GST = GST (Schistosoma japonicum, UniProt P08515); test: STD-NMR binding to control GST; conditions: control protein
Moesin [1] = molecular target: T1, Moesin (Homo sapiens, UniProt P26038); test: Saturation transfer difference NMR (STD-NMR) binding to Moesin
From the text: Following in silico docking, we (the inventors) triage binding using saturation transfer difference NMR (STD-NMR) as is routinely done in our laboratory to define binding of small molecules (see, Mollasalehi, N. et al. ACS Chem Biol, doi: 10.1021/acschembio.0c00494 (2020): Francois-Moutal, L. et al. ACS Chem Biol 14, 2006-2013, doi: 10.1021/acschembio.9b00481 (2019): François-Moutal, L. et al. ACS Chem Biol 13, 3000-3010, doi:10.1021/acschembio.8b00745 (2018)) (FIG. 2A). After testing the ability of all compounds to bind to Moesin. […] We then measured the affinity of binding using micro-scale thermophoresis (MST), a technique to quantify biomolecular interactions, based on thermophoresis. Concentration-dependent measurements were done using MST to determine dissociation constant for binding of P1 to Moesin and we obtained Apparent Kd=Xxx±xxx μM. Data are presented as mean±SD (n=3) (FIG. 3).

Moesin [2] = molecular target: T1, Moesin; test: Cellular Thermal Shift Assay (CETSA); type: cell-based
From the text: CETSA: To further ascertain the binding between Moesin and small compounds, we are currently developing Cellular Thermal Shift Assay (CETSA), a convenient cell-based test for identifying target engagement between ligands (i.e. a drug candidate) and their protein targets (PMID:XXX). CETSA has been previously used to measure the binding of small molecules to Ezrin (another FERM protein similar to Moesin) in a cellular environment (PMID: 33003361). The assay consists of the measurement of the shift in thermal stability of the target protein (Moesin) in the presence of the small molecules. The apparent melting temperature (Tm), observed in the presence or the absence of a bioactive compound, can be evaluated by measuring the persistence of soluble protein at different temperatures. If the compound binds to the protein of interest, a shift in melting temperature is observed.

Moesin [3] = molecular target: T1, Moesin; test: Biophysical binding of P1 analogs (SAR); conditions: first round of analogs
From the text: Indeed, such experiments defined the known structural interactions between CD44, and Msn based on a co-crystal structure of this protein-protein complex. It was proposed that the binding of Msn through CD44 could be mimicked by small molecules. By performing in silico docking on the CD44 binding pocket, using a virtual screen of 50,000 compounds and 200,000 pharmacophores and guided by FERM domain-peptide co-crystal structures, such experiments identified druggable pockets in these FERM proteins. Top scoring compounds were tested for binding to recombinant purified FERM proteins using several biophysical methods.
• Before engaging in custom synthesis, we searched for additional commercially available analogs to expand SAR at the east part of the P1, keeping the piperidinemethyl-heterocycle constant (FIG. 7, red oval). A total of 4.2M compounds were searched for a match to P1 features. “Drug-like” ZINC database 2019 and ChemBridge catalogue provided P1 analogues commercially available. 18 compounds matching the search criteria were selected and tested for biophysical binding. […] Our next SAR analogs will thus include structural modifications that will explore hydrogen bond patterns and the size of the fragments in the 5-hydroxypiperonyl/pyrazolopyridine area. […]

T1 sequence (P26038 whole entry): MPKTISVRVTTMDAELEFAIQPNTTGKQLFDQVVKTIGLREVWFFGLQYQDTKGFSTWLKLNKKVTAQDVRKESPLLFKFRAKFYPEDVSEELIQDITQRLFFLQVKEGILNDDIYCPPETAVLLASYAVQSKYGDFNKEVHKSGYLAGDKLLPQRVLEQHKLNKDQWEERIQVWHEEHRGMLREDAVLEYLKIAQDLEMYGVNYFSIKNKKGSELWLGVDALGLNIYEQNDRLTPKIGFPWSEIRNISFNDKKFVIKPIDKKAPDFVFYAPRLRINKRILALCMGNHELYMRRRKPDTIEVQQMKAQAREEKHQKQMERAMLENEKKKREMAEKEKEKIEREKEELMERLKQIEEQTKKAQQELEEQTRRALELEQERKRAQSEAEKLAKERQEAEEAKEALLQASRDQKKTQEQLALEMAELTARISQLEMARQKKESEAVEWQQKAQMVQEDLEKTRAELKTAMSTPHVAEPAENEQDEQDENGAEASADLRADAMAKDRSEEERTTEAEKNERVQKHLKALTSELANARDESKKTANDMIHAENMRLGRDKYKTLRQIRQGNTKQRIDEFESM
GST, sequence (P08515 2-218 limits assumed): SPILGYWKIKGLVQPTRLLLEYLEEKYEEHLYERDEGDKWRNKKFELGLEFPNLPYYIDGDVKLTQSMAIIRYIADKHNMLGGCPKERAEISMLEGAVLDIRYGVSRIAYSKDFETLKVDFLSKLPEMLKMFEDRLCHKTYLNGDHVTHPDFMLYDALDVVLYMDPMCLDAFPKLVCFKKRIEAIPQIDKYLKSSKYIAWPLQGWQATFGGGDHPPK

binding to the control GST (GST)	binding to Moesin (Moesin [1])	shift in melting temperature of Moesin (Moesin [2])	binding relative to P1 (Moesin [3])	Structure (SMILES)	HLA-DR level (HMC3 cells)
did not bind	binding specifically	discrete shift		CN1CCC(Cc2noc(CCc3nc4cccnc4n3C)n2)CC1 [P1]	reduced
			improved binding	CC(Oc1ccc2c(c1)OCO2)c1nc(CC2CCN(C)CC2)no1 (centres unmarked) [Plsar3]	
